Measurements: US20230357301A1, “HEXOSE DERIVATIVES, PREPARATION AND USES THEREOF” (Faculdade de Ciencias da Universidade de Lisboa, priority 2014, published 2023)
Values belong to the compound of their own block, whether it stands above or below them.

Key:
[1] = target: T1, lysozyme (Gallus gallus, UniProt P00698); assay: DSF thermal stability assay, lysozyme; design: species or system hen
T1 construct: hen egg white lysozyme was purchased from Sigma-Aldrich; purchased Sigma-Aldrich; host or cells: hen egg white
Procedure: The DSF based stability assays were performed at each protein working pH and the melting temperatures (TM) values determined in the absence (control experiments) and in the presence of solutes, and at different solute concentrations. The denaturation curves for each assay were analysed, and the melting temperatures determined by the calculation of the first derivative, which corresponds to the midpoint temperature of the protein-unfolding transition. […] The unfolding temperature shifts (ΔTM) were calculated by comparing the TM values obtained in the presence of solutes with the TM values of the control experiments (absence of solutes).
Mitochondrial malate dehydrogenase from pig heart (MDII) was purchased from Roche, and hen egg white lysozyme was purchased from Sigma-Aldrich. These enzymes were used without further purification.
The protein melting temperature (TM) determination was performed by monitoring protein unfolding with the fluoroprobe SYPRO Orange dye (Molecular Probes), which although completely quenched in aqueous environment, emits fluorescence upon binding to protein hydrophobic patches. Such increase in fluorescence can be measured as a function of temperature using Differential Scanning Fluorimetry. In a typical assay with a total volume of 20 µL, a protein concentration from 0.14 to 0.21 mg/mL, and a dye concentration of 5 fold were used to guarantee the best signal to noise ratio. Protein stock solutions of SNase or MDH were prepared in phosphate buffer (20 mM of sodium phosphate, pH 7.6), and lysozyme was prepared in citrate buffer (40 mM sodium citrate, 110 mM NaCl, pH 6.0). These stock solutions were extensively dialyzed against the same buffer before the assays. […] Solute solutions were prepared in water with the respective concentrations. […] Fluorescence intensities versus temperature are used to calculate the protein melting temperature (TM) by determining the first derivative (d(Rfu)/dT) to extract the exact transition inflection point.

[2] = target: T2, porcine insulin (Sus scrofa, UniProt P01315); assay: DSF thermal stability assay, porcine insulin; settings: insulin 129 µM, solute 0.1 and 0.25 M (FIG. 11)
T2 construct: solutions comprising porcine insulin at a concentration of 129 µM

[3] = target: T3, staphylococcal nuclease (SNase) (Staphylococcus aureus, UniProt P00644); assay: DSF thermal stability assay, staphylococcal nuclease; settings: solute 0.1, 0.25 and 0.5 M (FIG. 8)
T3 construct: Recombinant staphylococcal nuclease A (SNase) was produced and purified from Escherichia coli cells; made in house; host or cells: Escherichia coli
Procedure: (§1) The DSF based stability assays were performed at each protein working pH and the melting temperatures (TM) values determined in the absence (control experiments) and in the presence of solutes, and at different solute concentrations. The denaturation curves for each assay were analysed, and the melting temperatures determined by the calculation of the first derivative, which corresponds to the midpoint temperature of the protein-unfolding transition. In the absence of solutes, malate dehydrogenase (MDH), staphylococcal nuclease (SNase) and lysozyme have melting temperatures (TM) of 50, 52 and 71° C. respectively. The unfolding temperature shifts (ΔTM) were calculated by comparing the TM values obtained in the presence of solutes with the TM values of the control experiments (absence of solutes).
(§2) Mannosylglycerate (MG), glucosylglycerate (GG), glucosylglucosylglycerate (GGG), mannosyl glycolate (MGly) and mannosyl lactate (ML) were obtained by chemical synthesis as described in literature (Costa 1998). New synthetic compounds were obtained by chemical synthesis as described in Example 1. […] Purity and concentration of the compounds was assessed by ^1H NMR spectra obtained at 500 MHz spectrometer in D2O. For quantification purposes, spectra were acquired with a repetition delay of 60 s with formate as concentration standard. […]

[4] = target: T4, malate dehydrogenase (MDH) (Sus scrofa, UniProt P00346); assay: DSF thermal stability assay, malate dehydrogenase; design: species or system pig; settings: solute 0.1, 0.25 and 0.5 M (FIG. 9)
T4 construct: Mitochondrial malate dehydrogenase from pig heart (MDII) was purchased from Roche; purchased Roche; host or cells: pig heart
T4 sequence (P00346 25-338): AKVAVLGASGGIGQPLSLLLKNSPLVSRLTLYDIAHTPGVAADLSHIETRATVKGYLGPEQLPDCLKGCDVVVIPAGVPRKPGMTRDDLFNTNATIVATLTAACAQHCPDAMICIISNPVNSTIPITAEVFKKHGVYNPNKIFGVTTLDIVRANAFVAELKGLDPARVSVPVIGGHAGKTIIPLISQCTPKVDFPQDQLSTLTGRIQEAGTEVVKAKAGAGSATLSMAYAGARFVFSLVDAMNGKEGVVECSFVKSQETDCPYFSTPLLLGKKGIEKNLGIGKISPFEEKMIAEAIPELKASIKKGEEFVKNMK
Procedure: as §1, §2

T1 sequence (P00698 19-147): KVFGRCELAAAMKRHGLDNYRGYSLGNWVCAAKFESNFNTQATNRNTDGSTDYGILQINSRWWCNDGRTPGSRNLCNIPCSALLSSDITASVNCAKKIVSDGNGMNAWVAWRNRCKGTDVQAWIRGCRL
T2 sequence (P01315 25-54 limits assumed): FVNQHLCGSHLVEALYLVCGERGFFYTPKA
T2 sequence (P01315 88-108 limits assumed): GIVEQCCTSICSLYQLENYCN

Compound: CC(=O)[O-].[K+] [AcOK, potassium acetate]
stabilising effect of AcOK alone on lysozyme ([1]; AcOK alone, concentration dependence (FIG. 6)): not a good stabiliser, stabilising only at high salt concentrations
stabilising effect of AcOK on lysozyme in conjugation with hypersolutes ([1]; AcOK with hypersolutes (0.5 M) (FIG. 6)): able to enhance their stabilisation properties

increment in melting temperature of porcine insulin [2]: highest increases in melting temperature
Compound: O=C([O-])COC1O[C@H](CO)[C@@H](O)[C@H](O)[C@H]1O.[K+] (stereo partly drawn) [glucosyl glycolate, Potassium 2-(α/β-D-glucopyranosyl) acetate]

Compound: Potassium (2S) -2-0- (α/β-D-galactopyranosyl)-2-hydroxysuccinate [α-galactosyl malate]
dependence of SNase melting temperature on the concentration of solutes [3]: clearly the best stabiliser
dependence of lysozyme melting temperature on the concentration of solutes ([1]; solute 0.1, 0.25 and 0.5 M (FIG. 10)): clearly the best stabiliser

increment in melting temperature of porcine insulin [2]: highest increases in melting temperature
dependence of MDH melting temperature on the concentration of solutes [4]: the best stabiliser
Compound: Potassium (2S)-2-O-(α/β-D-glucopyranosyl)-2-hydroxysuccinate [glucosyl malate]
